The source of these data is patent US20230072421A1, “TARGETED RADIOPHARMACEUTICALS FOR THE DIAGNOSIS AND TREATMENT OF PROSTATE CANCER” (Bayer AS, priority 2019, published 2023).

In one assay the test system is 22Rv1 cells. The experiment in a line: Cell proliferation assay (CellTiter-Glo, 5-day exposure), 22Rv1. To be noted: 22Rv1, 1000 cells/well, Th-227 labelled at 375 kBq/nmol, mean of 1 to 6 experiments. It counts as cell-based. The method, then: (§1) Inhibition of cell proliferation of Thorium-227 labeled PMSA SMOL ligands was tested different prostate cancer cell lines, namely 22Rv1, VCaP, C4-2 (all from ATCC, Manassas, Va., USA) and LNCaP (DMSZ, Braunschweig). Cells were seeded using the following conditions in 384 well plates (Corning) in 30 μl of growth media at 4000 cells/well for VCaP cells and 1000 cells/well for 22Rv1, C4-2 and LNCaP cells.
(§2) Cells were cultivated an incubator at 37° C. and 5% C02 over night. […] In sister plates cell viability at treatment start (d=0) was determined using CellTiter-Glo® assay (CTG, Promega, Madison, Wis., USA), by adding 30 μl per well CTG solution, incubation for 10 min and reading of Luminescence in a PheraStarFSX instrument (BMG Labtech). After a 5-day exposure in the presenced of test compounds, cell viability of treated or untreated control cells was determined again using CellTiter-Glo® assay (Promega, Madison, Wis., USA). […] The DRC software is a Biobook Spreadsheet that was developed by Bayer AG and Bayer Business Services on the IDBS E-Workbook Suite platform (IDBS: ID Business Solutions Ltd., Guildford, UK).
In general terms: In ATP-based viability assays light output follows the ATP content of the culture.

The subject of the next assay is C4-2 cells. The experiment in a line: Cell proliferation assay (CellTiter-Glo, 5-day exposure), C4-2. It counts as cell-based. To be noted: C4-2, 1000 cells/well, Th-227 labelled at 375 kBq/nmol, mean of 1 to 6 experiments. As for the experimental part:
as §1, §2

The test system of a further assay is VCaP cells. The experiment in a line: Cell proliferation assay (CellTiter-Glo, 5-day exposure), VCaP. In kind it is cell-based. To be noted: 4000 cells/well, Th-227 labelled at 375 kBq/nmol, mean of 1 to 6 experiments. As for the experimental part:
as §1, §2

The target in assay [1] is T1, PSMA-expressing LNCaP cells (Homo sapiens, UniProt Q04609).
T1 construct: PSMA-expressing LNCaP cells; endogenous in cells; host or cells: LNCaP
T1 sequence (Q04609 whole entry): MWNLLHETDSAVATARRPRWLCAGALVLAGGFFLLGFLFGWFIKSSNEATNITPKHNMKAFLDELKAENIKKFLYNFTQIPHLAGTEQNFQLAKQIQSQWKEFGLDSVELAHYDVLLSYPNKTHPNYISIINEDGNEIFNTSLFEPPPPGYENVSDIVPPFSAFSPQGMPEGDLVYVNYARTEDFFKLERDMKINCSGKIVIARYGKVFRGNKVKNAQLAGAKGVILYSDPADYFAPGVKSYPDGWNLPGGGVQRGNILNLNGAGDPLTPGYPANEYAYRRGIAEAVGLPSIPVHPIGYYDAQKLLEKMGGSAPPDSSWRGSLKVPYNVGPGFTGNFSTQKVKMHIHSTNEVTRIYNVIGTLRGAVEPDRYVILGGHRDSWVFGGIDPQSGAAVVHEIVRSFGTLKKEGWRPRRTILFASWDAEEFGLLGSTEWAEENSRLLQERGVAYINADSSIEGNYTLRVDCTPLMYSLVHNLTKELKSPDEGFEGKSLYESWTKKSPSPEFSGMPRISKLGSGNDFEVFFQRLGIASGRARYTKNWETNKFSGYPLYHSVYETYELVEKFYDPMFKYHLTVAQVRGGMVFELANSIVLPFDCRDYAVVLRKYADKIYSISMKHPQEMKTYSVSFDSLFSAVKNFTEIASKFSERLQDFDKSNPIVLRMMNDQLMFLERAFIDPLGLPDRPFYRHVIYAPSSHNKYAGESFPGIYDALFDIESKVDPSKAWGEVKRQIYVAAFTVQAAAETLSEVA
The experiment in a line: Binding competition assay against 3H-PSMA-617 on LNCaP cells. Particulars: LNCaP cells, 10 nM 3H-PSMA-617, 2 h at 37° C., triplicates. In a few lines: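 Compounds added to LNCaP cells in growth medium, 2 h at 37 °C, 5% CO2. After two ice-cold PBS washes, cells lysed in 0.3 M NaOH and bound radioactivity measured by liquid scintillation counting.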

Where [2] appears, read: competing non-radiolabeled compound 10 nM.
The mark [3] stands for this setting: competing non-radiolabeled compound 100 nM.

On to “[^227Th]Thorium-{N^6-[3-(quinolin-2-yl)-N-{(1r,4S)-4-[(2-{4,7,10-tris[(carboxy-kappaO)methyl]-1,4,7,10-tetraazacyclododecan-1-yl-kappa^4N^1,N^4,N^7,N^10}acetamido)methyl]cyclohexane-1-carbonyl}-L-alanyl]-N^2-{[(1S)-1,3-dicarboxypropyl]carbamoyl}-L-lysinate} [Example 17-B-227Th]”, for which the “Proliferation assay on cancer cell lines by TTCs Default Pivot #3 IC50 [kBq/mL] 22Rv1 1000cells 375kBq/nmol (mean)” value with 22Rv1 cells is on record as 0.8 kBq/mL. Moreover, the “Proliferation assay on cancer cell lines by TTCs Default Pivot #3 IC50 [kBq/mL] C4-2 1000cells 375kBq/nmol (mean)” value with C4-2 cells turned out to be 0.15 kBq/mL. Moreover, the “Proliferation assay on cancer cell lines by TTCs Default Pivot #3 IC50 [kBq/mL] VCap 4000cells 375kBq/nmol (mean)” value in the assay with VCaP cells is 0.73 kBq/mL.
The like results for `CNc1cc(CC(NC(=O)C2CCC(CNC(=O)Cn3c(C)cc(C(=O)NCCN(CCCN(CCNC(=O)c4cc(C)n(CC(=O)O)c(=O)c4[O-])CCNC(=O)c4cc(C)n(CC(=O)NCC5CCC(C(=O)NC(Cc6cc(NC)c7ccccc7c6)C(=O)NCCCCC(NC(=O)NC(CCC(=O)O)C(=O)O)C(=O)O)CC5)c(=O)c4[O-])CCNC(=O)c4cc(C)n(CC(=O)O)c(=O)c4[O-])c([O-])c3=O)CC2)C(=O)NCCCCC(NC(=O)NC(CCC(=O)O)C(=O)O)C(=O)O)cc2ccccc12.[227Th+4]` (centres unmarked) [37-C dimer-227Th] were, in that order, 1.06 kBq/mL, 0.48 kBq/mL and 1.53 kBq/mL.
By remaining activity is commonly meant the signal under treatment as a percentage of the control signal. On to `O=C(O)CC[C@H](NC(=O)N[C@@H](CCCCNC(=O)[C@H](Cc1ccc2ccccc2c1)NC(=O)c1cccc(CNC(=O)CN2CCN(CC(=O)O)CCN(CC(=O)O)CCN(CC(=O)O)CC2)c1)C(=O)O)C(=O)O` [Example 27-B, (3S,10S,14S)-3-[(naphthalen-2-yl)methyl]-1,4,12-trioxo-1-[3-({2-[4,7,10-tris(carboxymethyl)-1,4,7,10-tetraazacyclododecan-1-yl]acetamido}methyl)phenyl]-2,5,11,13-tetraazahexadecane-10,14,16-tricarboxylic acid], for which the remaining activity at 0.01 µM in assay [1] (setting [2]) is 54%. In assay [1] (setting [3]), the remaining activity at 0.1 µM was found to be 6%.
The like results for `Cc1ccc(C[C@H](NC(=O)[C@H]2CC[C@H](CN)CC2)C(=O)NCCCC[C@H](NC(=O)N[C@@H](CCC(=O)O)C(=O)O)C(=O)O)cc1` [Example 13-A, N^6—{N-[(1r,4S)-4-(aminomethyl)cyclohexane-1-carbonyl]-4-methyl-L-phenylalanyl}-N^2-{[(1S)-1,3-dicarboxypropyl]carbamoyl}-L-lysine] were, in that order, 108% and 124%.
The like results for `NC[C@H]1CC[C@H](C(=O)N(Cc2cccc(=O)[nH]2)[C@@H](Cc2ccc3ccccc3c2)C(=O)NCCCC[C@H](NC(=O)N[C@@H](CCC(=O)O)C(=O)O)C(=O)O)CC1` [Example 21-A, (3S,10S,14S)-1-[(1r,4S)-4-(aminomethyl)cyclohexyl]-3-[(naphthalen-2-yl)methyl]-1,4,12-trioxo-2-[(6-oxo-1,6-dihydropyridin-2-yl)methyl]-2,5,11,13-tetraazahexadecane-10,14,16-tricarboxylic acid] were, in that order, 70% and 58%.
In the same order, the values of `NC1CC2(C1)CC(C(=O)N[C@@H](Cc1ccc3ccccc3c1)C(=O)NCCCC[C@H](NC(=O)N[C@@H](CCC(=O)O)C(=O)O)C(=O)O)C2` (stereo partly drawn) [Example 47-A, (3S,10S,14S)-1-(6-aminospiro[3.3]heptan-2-yl)-3-[(naphthalen-2-yl)methyl]-1,4,12-trioxo-2,5,11,13-tetraazahexadecane-10,14,16-tricarboxylic acid] are 94% and 43%.
On to `COc1c(C[C@@H](NC(=O)[C@H]2CC[C@H](CNC(=O)CN3CCN(CC(=O)O)CCN(CC(=O)O)CCN(CC(=O)O)CC3)CC2)C(=O)NCCCC[C@H](NC(=O)N[C@@H](CCC(=O)O)C(=O)O)C(=O)O)ccc2ccccc12` [Example 33-B, (3R,10S,14S)-3-[(1-methoxynaphthalen-2-yl)methyl]-1,4,12-trioxo-1-[(1r,4S)-4-({2-[4,7,10-tris(carboxymethyl)-1,4,7,10-tetraazacyclododecan-1-yl]acetamido}methyl)cyclohexyl]-2,5,11,13-tetraazahexadecane-10,14,16-tricarboxylic acid], for which the remaining activity at 0.01 µM in assay [1] (setting [2]) worked out at 114%. Also, the remaining activity at 0.1 µM in assay [1] (setting [3]) turned out to be 40%.
The like results for `Cn1ccc(C(=O)NCCN(CCNC(=O)c2ccn(C)c(=O)c2O)CC(Cc2ccc(NC(=O)CCC(=O)N[C@H](CCCNC(=N)N)C(=O)N[C@H](CCCNC(=N)N)C(=O)NC[C@H]3CC[C@H](C(=O)N[C@@H](Cc4ccc5ccccc5c4)C(=O)NCCCCC(NC(=O)N[C@@H](CCC(=O)O)C(=O)O)C(=O)O)CC3)cc2)CN(CCNC(=O)c2ccn(C)c(=O)c2O)CCNC(=O)c2ccn(C)c(=O)c2O)c(O)c1=O` (some centres unmarked) [Example 46-E] were, in that order, 78% and 66%.
In the same order, the values of `O=C(O)CC[C@H](NC(=O)N[C@@H](CCCCNC(=O)[C@@H](Cc1cnc2ccccc2c1)NC(=O)c1ccc(CNC(=O)CN2CCN(CC(=O)O)CCN(CC(=O)O)CCN(CC(=O)O)CC2)cn1)C(=O)O)C(=O)O` [Example 32-B, N^6-{3-(quinolin-3-yl)-N-[5-({2-[4,7,10-tris(carboxymethyl)-1,4,7,10-tetraazacyclododecan-1-yl]acetamido}methyl)pyridine-2-carbonyl]-D-alanyl}-N^2-{[(1S)-1,3-dicarboxypropyl]carbamoyl}-L-lysine] are 88% and 35%.
The like results for `CC(=O)NCCCC[C@H](NC(=O)[C@H]1CC[C@H](CN)CC1)C(=O)NCCCC[C@H](NC(=O)N[C@@H](CCC(=O)O)C(=O)O)C(=O)O` [Example 11-A, N^6—{N^6-acetyl-N^2-[(1r,4S)-4-(aminomethyl)cyclohexane-1-carbonyl]-L-lysyl}-N^2-{[(1S)-1,3-dicarboxypropyl]carbamoyl}-L-lysine] were, in that order, 117% and 146%.
As to `O=C(O)CC[C@H](NC(=O)N[C@@H](CCCCNC(=O)[C@H](Cc1ccc2ccccc2n1)NC(=O)C1CCC(CNC(=O)C[N+]23CC[N+]45CCN6CC[N+]7(CC2)CC(=O)[OH+][Th]347([O]C(=O)C6)[O]C(=O)C5)CC1)C(=O)O)C(=O)O` (some centres unmarked) [Example 17-B-232Th], the “% remaining 3H-PSMA-617 @ 10 nM (mean)” value in assay [1] (setting [2]) turned out to be 46%. Besides, in assay [1] (setting [3]), the “% remaining 3H-PSMA-617 @ 100 nM (mean)” value was 10%.
As for `NCc1cccc(C(=O)N[C@@H](Cc2ccc3ccccc3c2)C(=O)NCCCC[C@H](NC(=O)N[C@@H](CCC(=O)O)C(=O)O)C(=O)O)c1` [Example 27-A, (3S,10S,14S)-1-[3-(aminomethyl)phenyl]-3-[(naphthalen-2-yl)methyl]-1,4,12-trioxo-2,5,11,13-tetraazahexadecane-10,14,16-tricarboxylic acid], the remaining activity at 0.01 µM in assay [1] (setting [2]) is 27%. In addition, the remaining activity at 0.1 µM in assay [1] (setting [3]) came out at 7%.
